Laboratory results as given in US20250289789A1, “REVERSIBLE LYSINE COVALENT MODIFIERS OF CDK2 AND USES THEREOF” (Terremoto Biosciences, Inc., priority 2023, published 2025).

Tests used:
Type in all cases: cell-based
[1] = test system: Phospho-Rb Ser807/811 in OVCAR3 cells; test: OVCAR3 Phospho-Rb Ser807/811 HTRF assay; conditions: Homo sapiens, OVCAR-3, 1 h, OVCAR3 cells, Phospho-Rb Ser807/811 HTRF, 1 hour incubation; read-out: pRb-OVCAR3 IC50
Procedure: Cells were trypsinized and resuspended in 1 mM hydroxyurea (Sigma; H8627), 90% RPMI and 10% fetal bovine serum. […] Dose response curve normalized to DMSO control was plotted using four-parameter logistic model for IC50 calculation.

[2] = molecular target: T1, CDK1-NanoLuc fusion with CCNB1 in 293T or 293 cells (Homo sapiens, UniProt P06493); test: NanoBRET Target Engagement (TE) Intracellular Kinase Assay, CDK1/CCNB1; conditions: NanoBRET TE intracellular kinase assay, 2-hour incubation, read-out: NanoBRET-CDK1/B1 IC50
T1 construct: host or cells: 293T (ATCC CRL-3216) or 293 (ATCC CRL-1573)
Procedure: Inhibitory effects of compounds were measured in NanoBRET TE Intracellular Kinase Assay. 293T (ATCC; CRL-3216) or 293 (ATCC; CRL-1573) cell lines were maintained in 90% DMEM and 10% fetal bovine serum at 37° C., 5% CO2, and 95% relative humidity. Cells were trypsinized and resuspended in assay media (99% Opti-MEM I Reduced Serum Medium, no phenol red, and 1% fetal bovine serum). Cells were co-transfected with 1 μg/mL of CDK-NanoLuc Fusion Vector (Promega; NV2701 for CDK1, NV2781 for CDK2, NV2811 for CDK4, NV2841 for CDK6) and 1 μg/mL of the corresponding Cyclin Expression Vector (Promega; NV2601 for CCNB1, NV2641 for CCNE1, NV2621 for CCND1, NV2631 for CCND3) using FuGENE HD Transfection Reagent (Promega; E2311). 40 uL/well of cells with transfection mixture were seeded in 384-well plates at 1.25×10^5 to 2×10^5 cells/mL and incubated for 24 hours at 37° C., 5% CO2, and 95% relative humidity. On the next day, 100 nL of 100 μM NanoBRET Tracer K-10 (Promega; N2640) and 40 nL of 1000× test compounds prepared in DMSO were added to the cells in each well of 384-well plates for a 2-hour incubation at 37° C., 5% CO2, and 95% relative humidity. 20 uL/well of 3× Intracellular TE Nano-Glo Substrate/Inhibitor (Promega; N2162) were added to 384-well plates and incubated for 3 minutes at room temperature. NanoBRET signals (donor emission wavelength at 450 nm, acceptor emission wavelength at 610 nm) were measured using Envision plate reader (PerkinElmer). NanoBRET ratio was calculated by: BRET Ratio=raw signal for acceptor/raw signal for donor. Dose response curve normalized to DMSO control was plotted using four-parameter logistic model for IC50 calculation.

[3] = molecular target: T2, CDK4-NanoLuc fusion with CCND1 in 293T or 293 cells (Homo sapiens, UniProt P11802); test: NanoBRET Target Engagement (TE) Intracellular Kinase Assay, CDK4/CCND1; conditions: NanoBRET TE intracellular kinase assay, 2-hour incubation, read-out: NanoBRET-CDK4/D1 IC50
T2 construct: host or cells: 293T (ATCC CRL-3216) or 293 (ATCC CRL-1573)

[4] = molecular target: T3, CDK2-NanoLuc fusion with CCNE1 in 293T or 293 cells (Homo sapiens, UniProt P24941); test: NanoBRET Target Engagement (TE) Intracellular Kinase Assay, CDK2/CCNE1; conditions: NanoBRET TE intracellular kinase assay, 2-hour incubation, read-out: NanoBRET-CDK2/E1 IC50
T3 construct: host or cells: 293T (ATCC CRL-3216) or 293 (ATCC CRL-1573)

T1 sequence (P06493 whole entry, the tested form may be a part): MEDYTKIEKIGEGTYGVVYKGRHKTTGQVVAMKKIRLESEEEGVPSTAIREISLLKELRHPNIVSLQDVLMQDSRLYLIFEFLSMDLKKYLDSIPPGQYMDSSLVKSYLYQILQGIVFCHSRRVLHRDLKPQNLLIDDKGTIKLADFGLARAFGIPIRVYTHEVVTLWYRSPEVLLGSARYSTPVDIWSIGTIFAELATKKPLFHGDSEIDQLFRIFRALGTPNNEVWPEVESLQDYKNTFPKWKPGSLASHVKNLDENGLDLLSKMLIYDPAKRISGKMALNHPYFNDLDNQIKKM
T1 sequence (P14635 whole entry partner, the tested form may be a part): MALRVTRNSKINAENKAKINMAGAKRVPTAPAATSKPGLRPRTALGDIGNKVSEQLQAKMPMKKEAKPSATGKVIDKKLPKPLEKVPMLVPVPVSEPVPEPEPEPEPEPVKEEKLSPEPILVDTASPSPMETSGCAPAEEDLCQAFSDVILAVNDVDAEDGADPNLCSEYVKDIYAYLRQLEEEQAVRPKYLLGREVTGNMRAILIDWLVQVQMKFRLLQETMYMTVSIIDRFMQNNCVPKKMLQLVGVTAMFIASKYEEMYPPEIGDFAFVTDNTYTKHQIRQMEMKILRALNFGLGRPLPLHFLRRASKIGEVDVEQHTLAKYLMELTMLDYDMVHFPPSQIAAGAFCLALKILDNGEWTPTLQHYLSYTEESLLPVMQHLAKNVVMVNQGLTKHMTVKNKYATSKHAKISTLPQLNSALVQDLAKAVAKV
T2 sequence (P11802 whole entry, the tested form may be a part): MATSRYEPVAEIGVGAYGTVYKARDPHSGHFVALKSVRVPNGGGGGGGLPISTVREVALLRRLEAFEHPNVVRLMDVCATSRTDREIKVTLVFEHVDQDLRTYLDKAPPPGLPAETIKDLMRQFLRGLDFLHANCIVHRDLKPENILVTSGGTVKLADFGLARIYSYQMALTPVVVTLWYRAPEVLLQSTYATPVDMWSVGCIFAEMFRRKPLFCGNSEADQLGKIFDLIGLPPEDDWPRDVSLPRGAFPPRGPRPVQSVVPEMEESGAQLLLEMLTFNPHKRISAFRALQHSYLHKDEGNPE
T2 sequence (P24385 whole entry partner, the tested form may be a part): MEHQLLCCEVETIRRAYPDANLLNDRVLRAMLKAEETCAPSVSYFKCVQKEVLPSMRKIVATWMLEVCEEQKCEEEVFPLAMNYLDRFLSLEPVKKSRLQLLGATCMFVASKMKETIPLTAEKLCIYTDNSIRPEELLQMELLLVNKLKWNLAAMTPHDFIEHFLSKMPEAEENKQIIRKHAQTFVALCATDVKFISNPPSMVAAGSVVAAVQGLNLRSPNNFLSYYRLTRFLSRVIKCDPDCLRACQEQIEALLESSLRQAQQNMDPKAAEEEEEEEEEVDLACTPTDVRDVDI

Compound | IC50 [1] | IC50 [2] | IC50 [3] | IC50 [4]
CC(C)NC(=O)O[C@@H]1CC[C@H](c2cc(NC(=O)[C@H]3C[C@H](Oc4cccc(O)c4C=O)C3)n[nH]2)C1 (single isomer, unassigned) [Compound 1] | 274 nM | 62.9 nM | 1800 nM | 7.87 nM
CC(C)NC(=O)O[C@@H]1CC[C@H](c2cc(NC(=O)[C@H]3C[C@@H]3c3cccc(O)c3C=O)n[nH]2)C1 (single isomer, unassigned) [Compound 10] | 67.6 nM | 11.3 nM | 1000 nM | 6.04 nM
COc1cc(O)c(C=O)c([C@H]2C[C@@H]2C(=O)Nc2cc([C@H]3CC[C@@H](OC(=O)NC(C)C)C3)[nH]n2)c1 (single isomer, unassigned) [Compound 90] | 761 nM | 213 nM | 5100 nM | 43.8 nM
CC(C)NC(=O)O[C@@H]1CC[C@H](c2cc(NC(=O)CCCc3cccc(O)c3C=O)n[nH]2)C1 [Compound 12, 1R,3S)-3-(3-(4-(2-formyl-3-hydroxyphenyl)butanamido)-1H-pyrazol-5-yl)cyclopentyl isopropylcarbamate] |  | 126 nM | 1450 nM | 11.1 nM
CC(C)NC(=O)O[C@@H]1CC[C@H](c2cc(NC(=O)[C@@H]3Cc4ccc(O)c(C=O)c4C3)n[nH]2)C1 [Compound 26, (1R,3S)-3-{5-[(2R)-4-formyl-5-hydroxy-2,3-dihydro-1H-indene-2-amido]-2H-pyrazol-3-yl}cyclopentyl N-isopropylcarbamate] | 94.5 nM | 21.7 nM |  | 2.78 nM
O=Cc1c(O)cc(F)cc1OCC(=O)Nc1cc([C@H]2CC[C@@H](OC(=O)N3C4COCC3C4)C2)[nH]n1 [Compound 192] | 88 nM |  | 5910 nM | 24 nM
COc1cc(O)c(C=O)c(O[C@H](C)C(=O)Nc2cc([C@H]3C[C@@H](OC(=O)N4C5COCC4C5)C3)[nH]n2)c1 [Compound 193] | 84.7 nM |  | > 10000 nM | 11.6 nM
COc1cc(O)c(C=O)c(OCC(=O)Nc2cc([C@H]3CC[C@@H](OC(=O)N4CCN(C)CC4)C3)[nH]n2)c1 [Compound 195] | 37.8 nM |  | 5000 nM | 9.37 nM
O=Cc1c(O)cccc1OCC(=O)Nc1cc([C@H]2CC[C@@H](OC(=O)N3C4COCC3C4)C2)[nH]n1 [Compound 196] | 102 nM |  | 7360 nM | 6.2 nM
COc1cc(O)c(C=O)c(OCC(=O)Nc2cc([C@H]3CC[C@@H](OC(=O)N4CCCCC4)C3)[nH]n2)c1 [Compound 234, (1R,3S)-3-(3-(2-(2-formyl-3-hydroxy-5-methoxyphenoxy)acetamido)-1H-pyrazol-5-yl)cyclopentyl piperidine-1-carboxylate] | 14.2 nM |  | 2840 nM | 1.18 nM
CC(C)NC(=O)O[C@@H]1CC[C@H](c2cc(NC(=O)[C@@H]3Cc4ccc(O)c(C=O)c4C3)n[nH]2)C1 [Compound 256] | 68.9 nM | 20.3 nM |  | 3.76 nM
CC(C)NC(=O)O[C@@H]1CC[C@H](c2cc(NC(=O)CNc3cccc(O)c3C=O)n[nH]2)C1 [Compound 259] |  | 8060 nM | > 10000 nM | 649 nM
CC(C)NC(=O)O[C@@H]1CC[C@H](c2cc(Nc3nccc4c(C=O)c(O)ccc34)n[nH]2)C1 [Compound 260, (1R,3S)-3-(3-((5-formyl-6-hydroxyisoquinolin-1-yl)amino)-1H-pyrazol-5-yl)cyclopentyl isopropylcarbamate] | 170 nM |  | > 10000 nM | 15 nM
CC1(NC(=O)O[C@@H]2CC[C@H](c3cc(Nc4nccc5c(C=O)c(O)ccc45)n[nH]3)C2)CC1 [Compound 261, (1R,3S)-3-(3-((5-formyl-6-hydroxyisoquinolin-1-yl)amino)-1H-pyrazol-5-yl)cyclopentyl (1-methylcyclopropyl)carbamate] | 51 nM |  | 4100 nM | 4.7 nM
COc1cc(O)c(C=O)c(OCC(=O)Nc2cc([C@H]3CC[C@@H](OC(=O)N4C5CCC(C5)N4C)C3)[nH]n2)c1 (stereo partly drawn) [Compound 272, (1R,3S)-3-(3-(2-(2-formyl-3-hydroxy-5-methoxyphenoxy)acetamido)-1H-pyrazol-5-yl)cyclopentyl 3-methyl-2,3-diazabicyclo[2.2.1]heptane-2-carboxylate] | 39.3 nM |  | > 10000 nM | 2.2 nM
COc1cc(O)c(C=O)c(OCC(=O)Nc2cc([C@H]3CC[C@@H](OC(=O)N4NC5CCC4C5)C3)[nH]n2)c1 (stereo partly drawn) [Compound 273, (1R,3S)-3-(3-(2-(2-formyl-3-hydroxy-5-methoxyphenoxy)acetamido)-1H-pyrazol-5-yl)cyclopentyl 2,3-diazabicyclo[2.2.1]heptane-2-carboxylate] | 29.5 nM |  | 5820 nM | 2.38 nM
CCN(C)NC(=O)O[C@@H]1CC[C@H](c2cc(NC(=O)COc3cc(OC)cc(O)c3C=O)n[nH]2)C1 [Compound 274, (1R,3S)-3-(3-(2-(2-formyl-3-hydroxy-5-methoxyphenoxy)acetamido)-1H-pyrazol-5-yl)cyclopentyl 2-ethyl-2-methylhydrazine-1-carboxylate] | 54.7 nM |  | > 10000 nM | 3.17 nM
CCN(NC)C(=O)O[C@@H]1CC[C@H](c2cc(NC(=O)COc3cc(OC)cc(O)c3C=O)n[nH]2)C1 [Compound 275, (1R,3S)-3-(3-(2-(2-formyl-3-hydroxy-5-methoxyphenoxy)acetamido)-1H-pyrazol-5-yl)cyclopentyl 1-ethyl-2-methylhydrazine-1-carboxylate] | 35.7 nM |  | 5300 nM | 3.11 nM
CCNN(C)C(=O)O[C@@H]1CC[C@H](c2cc(NC(=O)COc3cc(OC)cc(O)c3C=O)n[nH]2)C1 [Compound 276, (1R,3S)-3-(3-(2-(2-formyl-3-hydroxy-5-methoxyphenoxy)acetamido)-1H-pyrazol-5-yl)cyclopentyl 2-ethyl-1-methylhydrazine-1-carboxylate] | 31.6 nM |  | > 10000 nM | 5.09 nM
CCN(CC)N(C)C(=O)O[C@@H]1CC[C@H](c2cc(NC(=O)COc3cc(OC)cc(O)c3C=O)n[nH]2)C1 [Compound 277, (1R,3S)-3-(3-(2-(2-formyl-3-hydroxy-5-methoxyphenoxy)acetamido)-1H-pyrazol-5-yl)cyclopentyl 2,2-diethyl-1-methylhydrazine-1-carboxylate] | 25.6 nM |  | 5090 nM | 1.48 nM
COc1cc(O)c(C=O)c(OCC(=O)Nc2cc([C@H]3CC[C@@H](OC(=O)N4CCCN4C)C3)[nH]n2)c1 [Compound 278, (1R,3S)-3-(3-(2-(2-formyl-3-hydroxy-5-methoxyphenoxy)acetamido)-1H-pyrazol-5-yl)cyclopentyl 2-methylpyrazolidine-1-carboxylate] | 95.9 nM |  | > 10000 nM | 4.1 nM
CNN(C)C(=O)O[C@@H]1CC[C@H](c2cc(NC(=O)COc3cc(OC)cc(O)c3C=O)n[nH]2)C1 [Compound 279, (1R,3S)-3-(3-(2-(2-formyl-3-hydroxy-5-methoxyphenoxy)acetamido)-1H-pyrazol-5-yl)cyclopentyl 1,2-dimethylhydrazine-1-carboxylate] | 63.9 nM |  | > 10000 nM | 4.32 nM
